For 29 molecules, IC50 results are on record in patent publication US9278981B2, “Compounds and compositions for inhibiting the activity of ABL1, ABL2 and BCR-ABL1” (Novartis AG, priority 2012, dated 2016).

Assay [1] concerns the target T1, ABL1 (64-515) (Homo sapiens (Human), UniProt P00519). Briefly: Caliper ABL1 (64-515) assay (microfluidic mobility shift). It counts as biochemical.
Experimental: Expression and purification of human ABL was performed using standard expression purification procedures. […] The His-ABL was expressed in E. coli BL21 (DE3) and the ABL proteins were isolated by Ni-affinity on a Ni-NTA column (Qiagen). The His-tag was removed by PreScission protease (GE Healthcare) and the non-phosphoprylated ABL further purified on a Mono Q HR 10/10 (GE Healthcare, mono-phosphorylated ABL is about 10-20% of total ABL protein) and HiLoad 16/60 Superdex 200 size exclusion column (GE Healthcare).
All assays were performed in 384-well microtiter plates. Each assay plate contained 8-point serial dilutions for 40 test compounds, as well as four 8-point serial dilutions of staurosporine as a reference compound, plus 16 high and 16 low controls. Liquid handling and incubation steps were done on a Thermo CatX workstation equipped with Innovadyne Nanodrop Express. Between pipetting steps, tips were cleaned in wash cycles using wash buffer.
The assay plates were prepared by addition of 50 nL per well of compound solution in 90% DMSO. […] Plates with terminated kinase reactions were transferred to the Caliper LC3000 workstations for reading. Phosphorylated and unphosphorylated peptides were separated using the Caliper microfluidic mobility shift technology. Briefly, samples from terminated kinase reactions were applied to the chip. Analytes are transported through the chip by constant buffer flow and the migration of the substrate peptide is monitored by the fluorescence signal of its label. Phosphorylated peptide (product) and unphosphorylated peptide (substrate) are separated in an electric field by their charge/mass ratio. Kinase activities were calculated from the amounts of formed phospho-peptide. IC50 values were determined from percent inhibition values at different compound concentrations by non-linear regression analysis.
Test compounds were dissolved in DMSO (10 mM) and transferred into 1.4 mL flat bottom or V-shaped Matrix tubes carrying a unique 2D matrix. The stock solutions were stored at +2° C. if not used immediately. For the test procedure the vials were defrosted and identified by a scanner whereby a working sheet was generated that guided the subsequent working steps.
Compound dilutions were made in 96-well plates. This format enabled the assay of maximally 40 individual test compounds at 8 concentrations (single points) including 4 reference compounds. The dilution protocol included the production of “pre-dilution plates”, “master plates” and “assay plates”.
Polypropylene 96-well plates were used as pre-dilution plates. […] All dilution steps were done on a HamiltonSTAR robot.
These plates were used directly for the assay which was performed in a total volume of 9.05 μL.
Assay [2] has as its target T1, ABL1 (64-515). In words: Radio ABL1 (64-515) assay (radiometric filter-binding). It counts as biochemical.

T1 sequence (P00519 64-515): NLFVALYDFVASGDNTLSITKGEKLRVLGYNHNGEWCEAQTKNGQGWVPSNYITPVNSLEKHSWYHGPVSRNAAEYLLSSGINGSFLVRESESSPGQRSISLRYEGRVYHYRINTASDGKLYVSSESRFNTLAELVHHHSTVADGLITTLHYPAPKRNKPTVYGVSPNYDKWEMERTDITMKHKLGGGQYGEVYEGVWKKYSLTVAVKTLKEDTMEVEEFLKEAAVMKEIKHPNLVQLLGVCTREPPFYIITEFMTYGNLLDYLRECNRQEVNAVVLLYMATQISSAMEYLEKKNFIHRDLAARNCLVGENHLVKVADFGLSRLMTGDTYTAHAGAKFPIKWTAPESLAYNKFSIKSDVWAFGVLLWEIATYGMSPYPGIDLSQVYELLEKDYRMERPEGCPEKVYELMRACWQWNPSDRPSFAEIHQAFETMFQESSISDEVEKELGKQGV

On to `Cc1ncc(-c2cc(C(=O)Nc3ccc(OC(F)(F)F)cc3)cnc2N2CC(C)(O)C2)cc1F` [Example 133, 5′-Fluoro-2-(3-hydroxy-3-methylazetidin-1-yl)-6′-methyl-N-(4-(trifluoromethoxy)phenyl)-[3,3′-bipyridine]-5-carboxamide], for which the figures for the IC50 at ABL1 (64-515) [1] and at ABL1 (64-515) [2] were 1.4 nM and below 3 nM, respectively.

With `O=C(Nc1ccc(OC(F)(F)F)cc1)c1cnc(N2CC(CO)C2)c(-c2cncnc2)c1` [Example 135, 6-(3-(Hydroxymethyl)azetidin-1-yl)-5-(pyrimidin-5-yl)-N-(4-(trifluoromethoxy)phenyl)nicotinamide], the IC50 (usually the concentration needed to halve the response being measured) is 2 nM on ABL1 (64-515) [1] and below 3 nM on ABL1 (64-515) [2].

Consider `O=C(Nc1ccc(OC(F)(F)F)cc1)c1cnc(N2CC(CO)C2)c(-c2cccnc2)c1` [Example 137, 2-(3-(Hydroxymethyl)azetidin-1-yl)-N-(4-(trifluoromethoxy)phenyl)-[3,3′-bipyridine]-5-carboxamide], for which the IC50 on ABL1 (64-515) [1] amounted to 0.6 nM; on ABL1 (64-515) [2], 6 nM.

`Cc1ccc(-c2cc(C(=O)Nc3ccc(OC(F)(F)F)cc3)cnc2N2CC(CO)C2)cn1` [Example 138, 2-(3-(Hydroxymethyl)azetidin-1-yl)-6′-methyl-N-(4-(trifluoromethoxy)phenyl)-[3,3′-bipyridine]-5-carboxamide]: the half-inhibitory concentration (IC50) at ABL1 (64-515) [1] was found to be 0.8 nM; on ABL1 (64-515) [2], 7 nM.

For the molecule `O=C(Nc1ccc(OC(F)(F)F)cc1)c1cnc(N2CC(CO)C2)c(-c2cncc(F)c2)c1` [Example 139, 5′-Fluoro-2-(3-(hydroxymethyl)azetidin-1-yl)-N-(4-(trifluoromethoxy)phenyl)-[3,3′-bipyridine]-5-carboxamide], the 50% inhibitory concentration (IC50) was found to be 0.6 nM at ABL1 (64-515) [1] and 5 nM on ABL1 (64-515) [2].

On to `Cc1ncc(-c2cc(C(=O)Nc3ccc(OC(F)(F)F)cc3)cnc2N2CC(CO)C2)cc1F` [Example 140, 5′-Fluoro-2-(3-(hydroxymethyl)azetidin-1-yl)-6′-methyl-N-(4-(trifluoromethoxy)phenyl)-[3,3′-bipyridine]-5-carboxamide], for which the half-inhibitory concentration (IC50) on ABL1 (64-515) [1] is 0.4 nM; on ABL1 (64-515) [2] it was 4 nM.

For the molecule `CC(C)(O)C1CN(c2ncc(C(=O)Nc3ccc(OC(F)(F)F)cc3)cc2-c2cccnc2)C1` [Example 143, 2-(3-(2-Hydroxypropan-2-yl)azetidin-1-yl)-N-(4-(trifluoromethoxy)phenyl)-[3,3′-bipyridine]-5-carboxamide], the IC50 was 1.1 nM on ABL1 (64-515) [1] and 4 nM at ABL1 (64-515) [2].

For `O=C(Nc1ccc(OC(F)(F)F)cc1)c1cnc(N2CCOCC2)c(-c2cncnc2)c1` [Example 148, 6-Morpholino-5-(pyrimidin-5-yl)-N-(4-(trifluoromethoxy)phenyl)nicotinamide], the figures for the IC50 on ABL1 (64-515) [1] and on ABL1 (64-515) [2] were 2.5 nM and 3 nM, respectively.

On to `O=C(Nc1ccc(OC(F)(F)F)cc1)c1cnc(N2CCOCC2)c(-c2ccc(CO)nc2)c1` [Example 149, 6′-(Hydroxymethyl)-2-morpholino-N-(4-(trifluoromethoxy)phenyl)-[3,3′-bipyridine]-5-carboxamide], for which the IC50 was found to be 2.6 nM on ABL1 (64-515) [1] and 3 nM on ABL1 (64-515) [2].

`O=C(Nc1ccc(OC(F)(F)F)cc1)c1cnc(N2C3COCC2COC3)c(-c2cncnc2)c1` [Example 150, 6-(3,7-Dioxa-9-azabicyclo[3.3.1]nonan-9-yl)-5-(pyrimidin-5-yl)-N-(4-(trifluoromethoxy)phenyl)nicotinamide]: the values for the half-inhibitory concentration (IC50) at ABL1 (64-515) [1] and on ABL1 (64-515) [2] were 6.5 nM and 4 nM, respectively.

As for `CN(CCO)c1ncc(C(=O)Nc2ccc(OC(F)(F)F)cc2)cc1-c1cncnc1` [Example 151, 6-((2-Hydroxyethyl)(methyl)amino)-5-(pyrimidin-5-yl)-N-(4-(trifluoromethoxy)phenyl)nicotinamide], the values for the IC50 at ABL1 (64-515) [1] and at ABL1 (64-515) [2] were below 0.13 nM and below 3 nM, respectively.

As for `CN(CCO)c1ncc(C(=O)Nc2ccc(OC(F)(F)F)cc2)cc1-c1cncc(F)c1` [Example 154, 5′-Fluoro-2-((2-hydroxyethyl)(methyl)amino)-N-(4-(trifluoromethoxy)phenyl)-[3,3′-bipyridine]-5-carboxamide], the IC50 on ABL1 (64-515) [1] was 1 nM; on ABL1 (64-515) [2], below 3 nM.

In the case of `CN(CCO)c1ncc(C(=O)Nc2ccc(OC(F)(F)F)cc2)cc1-c1cncc(C#N)c1` [Example 155, 5′-Cyano-2-((2-hydroxyethyl)(methyl)amino)-N-(4-(trifluoromethoxy)phenyl)-[3,3′-bipyridine]-5-carboxamide], the IC50 is 5 nM at ABL1 (64-515) [1] and 11 nM at ABL1 (64-515) [2].

`CCN(CCO)c1ncc(C(=O)Nc2ccc(OC(F)(F)F)cc2)cc1-c1cncnc1` [Example 156, 6-(Ethyl(2-hydroxyethyl)amino)-5-(pyrimidin-5-yl)-N-(4-(trifluoromethoxy)phenyl)nicotinamide]: the figures for the 50% inhibitory concentration (IC50) on ABL1 (64-515) [1] and at ABL1 (64-515) [2] were 1.7 nM and 5 nM, respectively.

`CCN(CCO)c1ncc(C(=O)Nc2ccc(OC(F)(F)F)cc2)cc1-c1cncc(F)c1` [Example 157, 2-(Ethyl(2-hydroxyethyl)amino)-5′-fluoro-N-(4-(trifluoromethoxy)phenyl)-[3,3′-bipyridine]-5-carboxamide]: the 50% inhibitory concentration (IC50) at ABL1 (64-515) [1] was 2 nM; on ABL1 (64-515) [2] it was below 3 nM.

Turning to `CCN(CCO)c1ncc(C(=O)Nc2ccc(OC(F)(F)F)cc2)cc1-c1cncc(C#N)c1` [Example 158, 5′-Cyano-2-(ethyl(2-hydroxyethyl)amino)-N-(4-(trifluoromethoxy)phenyl)-[3,3′-bipyridine]-5-carboxamide], the figures for the half-maximal inhibitory concentration (IC50) on ABL1 (64-515) [1] and on ABL1 (64-515) [2] were 2.8 nM and 37 nM, respectively.

Consider `O=C(Nc1ccc(OC(F)(F)Cl)cc1)c1cnc(N2CC[C@@H](O)C2)c(-c2cccnc2F)c1` [Example 172, (R)—N-(4-(Chlorodifluoromethoxy)phenyl)-2′-fluoro-2-(3-hydroxypyrrolidin-1-yl)-[3,3′-bipyridine]-5-carboxamide], for which the IC50 was 0.3 nM on ABL1 (64-515) [1] and below 3 nM on ABL1 (64-515) [2].

As for `O=C(Nc1ccc(OC(F)(F)Cl)cc1)c1cnc(N2CC[C@H](CO)C2)c(-c2cncnc2)c1` [Example 174, (S)—N-(4-(Chlorodifluoromethoxy)phenyl)-6-(3-(hydroxymethyl)pyrrolidin-1-yl)-5-(pyrimidin-5-yl)nicotinamide], the IC50 on ABL1 (64-515) [1] turned out to be 0.9 nM; at ABL1 (64-515) [2], 3 nM.

As for `NC[C@@H]1CCN(c2ncc(C(=O)Nc3ccc(OC(F)(F)Cl)cc3)cc2-c2cncnc2)C1` [Example 177, (S)-6-(3-(Aminomethyl)pyrrolidin-1-yl)-N-(4-(chlorodifluoromethoxy)phenyl)-5-(pyrimidin-5-yl)nicotinamide], the half-maximal inhibitory concentration (IC50) at ABL1 (64-515) [1] was 0.3 nM; at ABL1 (64-515) [2], 1 nM.

In the case of `CC(=O)NC[C@H]1CCN(c2ncc(C(=O)Nc3ccc(OC(F)(F)Cl)cc3)cc2-c2cncnc2)C1` [Example 178, (R)-6-(3-(Acetamidomethyl)pyrrolidin-1-yl)-N-(4-(chlorodifluoromethoxy)phenyl)-5-(pyrimidin-5-yl)nicotinamide], the 50% inhibitory concentration (IC50) at ABL1 (64-515) [1] was 0.4 nM; at ABL1 (64-515) [2], 13 nM.

As to `CN(CCO)c1ncc(C(=O)Nc2ccc(OC(F)(F)Cl)cc2)cc1-c1cncnc1` [Example 179, N-(4-(Chlorodifluoromethoxy)phenyl)-6-((2-hydroxyethyl)(methyl)amino)-5-(pyrimidin-5-yl)nicotinamide], the IC50 came to 0.8 nM on ABL1 (64-515) [1] and 2 nM at ABL1 (64-515) [2].

As to `CN(CCO)c1ncc(C(=O)Nc2ccc(OC(F)(F)Cl)cc2)cc1-c1cncc(F)c1` [Example 180, N-(4-(Chlorodifluoromethoxy)phenyl)-5′-fluoro-2-((2-hydroxyethyl)(methyl)amino)-[3,3′-bipyridine]-5-carboxamide], the IC50 at ABL1 (64-515) [1] worked out at 0.4 nM; on ABL1 (64-515) [2], 1 nM.

`CCN(CCO)c1ncc(C(=O)Nc2ccc(OC(F)(F)Cl)cc2)cc1-c1cncnc1` [Example 182, N-(4-(Chlorodifluoromethoxy)phenyl)-6-(ethyl(2-hydroxyethyl)amino)-5-(pyrimidin-5-yl)nicotinamide]: the IC50 on ABL1 (64-515) [1] was 0.6 nM; on ABL1 (64-515) [2], 4 nM.

For the molecule `CCN(CCO)c1ncc(C(=O)Nc2ccc(OC(F)(F)Cl)cc2)cc1-c1cncc(F)c1` [Example 183, N-(4-(Chlorodifluoromethoxy)phenyl)-2-(ethyl(2-hydroxyethyl)amino)-5′-fluoro-[3,3′-bipyridine]-5-carboxamide], the values for the IC50 at ABL1 (64-515) [1] and on ABL1 (64-515) [2] were 0.5 nM and 2 nM, respectively.

Turning to `CCN(CCO)c1ncc(C(=O)Nc2ccc(OC(F)(F)Cl)cc2)cc1-c1cncc(C#N)c1` [Example 184, N-(4-(Chlorodifluoromethoxy)phenyl)-5′-cyano-2-(ethyl(2-hydroxyethyl)amino)-[3,3′-bipyridine]-5-carboxamide], the IC50 worked out at 0.8 nM at ABL1 (64-515) [1] and 6 nM on ABL1 (64-515) [2].

Regarding `N#Cc1cncc(-c2cc(C(=O)Nc3ccc(SC(F)(F)F)cc3)cnc2N2CC[C@@H](O)C2)c1` [Example 188, (R)-5′-Cyano-2-(3-hydroxypyrrolidin-1-yl)-N-(4-((trifluoromethyl)thio)phenyl)-[3,3′-bipyridine]-5-carboxamide], the IC50 on ABL1 (64-515) [1] was determined as 0.2 nM; at ABL1 (64-515) [2], 4 nM.

Turning to `O=C(Nc1ccc(SC(F)(F)F)cc1)c1cnc(N2CC[C@H](CO)C2)c(-c2cncnc2)c1` [Example 189, (S)-6-(3-(Hydroxymethyl)pyrrolidin-1-yl)-5-(pyrimidin-5-yl)-N-(4-((trifluoromethyl)thio)phenyl)nicotinamide], the IC50 on ABL1 (64-515) [1] was 1 nM; on ABL1 (64-515) [2], 3 nM.

On to `O=C(Nc1ccc(SC(F)(F)F)cc1)c1cnc(N2CC[C@H](CO)C2)c(-c2cncc(F)c2)c1` [Example 190, (S)-5′-Fluoro-2-(3-(hydroxymethyl)pyrrolidin-1-yl)-N-(4-((trifluoromethyl)thio)phenyl)-[3,3′-bipyridine]-5-carboxamide], for which the IC50 at ABL1 (64-515) [1] came out at 0.5 nM; at ABL1 (64-515) [2], 5.9 nM.

As for `N#Cc1cncc(-c2cc(C(=O)Nc3ccc(SC(F)(F)F)cc3)cnc2N2CC[C@H](CO)C2)c1` [Example 191, (S)-5′-Cyano-2-(3-(hydroxymethyl)pyrrolidin-1-yl)-N-(4-((trifluoromethyl)thio)phenyl)-[3,3′-bipyridine]-5-carboxamide], the IC50 on ABL1 (64-515) [1] was found to be 0.9 nM; on ABL1 (64-515) [2], 8 nM.
